Source: ChEMBL document CHEMBL4330065, “Type IIA - Type IIB protein tyrosine kinase inhibitors hybridization as an efficient approach for potent multikinase inhibitor development: Design, synthesis, anti-proliferative activity, multikinase inhibitory activity and molecular modeling of novel indolinone-based ureides and amides” (Eur J Med Chem, 2019)

Key:
[1] = test system: MCF7; test: cells; details: Homo sapiens, MCF7, 48 h
Description: Antiproliferative activity against human MCF7 cells after 48 hrs by SRB assay

[2] = Cytotoxicity against human HFB4 cells after 48 hrs by SRB assay; assay type: cell-based
[3] = test system: HepG2; test: Antiproliferative activity against human HepG2 cells after 48 hrs by SRB assay; assay type: functional, cell-based; details: HepG2, 48 h
[4] = test system: A549; test: cells; details: Homo sapiens, A549, 48 h
Description: Antiproliferative activity against human A549 cells after 48 hrs by SRB assay

[5] = molecular target: Platelet-derived growth factor receptor beta (Homo sapiens, UniProt P09619); test: Inhibition of PDGFR-beta (unknown origin) by ELISA
Sequence of Platelet-derived growth factor receptor beta (P09619 whole entry): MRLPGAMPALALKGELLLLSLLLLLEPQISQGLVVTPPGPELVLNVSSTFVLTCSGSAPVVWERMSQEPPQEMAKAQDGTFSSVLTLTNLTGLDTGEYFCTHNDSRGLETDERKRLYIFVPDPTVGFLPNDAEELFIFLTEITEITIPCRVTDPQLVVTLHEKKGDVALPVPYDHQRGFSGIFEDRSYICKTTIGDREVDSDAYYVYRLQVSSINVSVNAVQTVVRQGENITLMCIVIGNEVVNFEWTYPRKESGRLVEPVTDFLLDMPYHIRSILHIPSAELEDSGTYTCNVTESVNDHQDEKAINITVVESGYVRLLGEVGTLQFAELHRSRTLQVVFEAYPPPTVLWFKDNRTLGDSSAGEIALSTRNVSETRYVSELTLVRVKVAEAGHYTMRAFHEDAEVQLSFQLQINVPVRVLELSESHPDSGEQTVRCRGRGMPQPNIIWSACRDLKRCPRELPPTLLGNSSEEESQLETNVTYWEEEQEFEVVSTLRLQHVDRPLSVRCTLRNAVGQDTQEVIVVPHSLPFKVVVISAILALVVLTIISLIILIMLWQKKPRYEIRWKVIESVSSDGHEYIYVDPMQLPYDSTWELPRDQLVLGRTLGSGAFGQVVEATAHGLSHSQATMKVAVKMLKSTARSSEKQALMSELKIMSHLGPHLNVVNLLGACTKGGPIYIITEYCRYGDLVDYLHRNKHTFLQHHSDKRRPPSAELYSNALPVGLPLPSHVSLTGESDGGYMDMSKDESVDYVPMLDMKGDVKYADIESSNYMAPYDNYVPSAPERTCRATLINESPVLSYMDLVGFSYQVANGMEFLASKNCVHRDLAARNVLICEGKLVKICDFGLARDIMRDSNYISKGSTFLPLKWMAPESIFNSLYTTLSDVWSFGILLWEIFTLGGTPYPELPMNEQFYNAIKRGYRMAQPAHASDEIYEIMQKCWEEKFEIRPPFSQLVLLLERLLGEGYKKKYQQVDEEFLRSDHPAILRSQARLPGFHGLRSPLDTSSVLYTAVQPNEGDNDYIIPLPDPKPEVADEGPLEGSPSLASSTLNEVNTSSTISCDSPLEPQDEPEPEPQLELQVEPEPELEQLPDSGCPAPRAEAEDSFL

[6] = molecular target: Fibroblast growth factor receptor 1 (Homo sapiens, UniProt P11362); test: Inhibition of FGFR-1 (unknown origin) by ELISA
Sequence of Fibroblast growth factor receptor 1 (P11362 whole entry): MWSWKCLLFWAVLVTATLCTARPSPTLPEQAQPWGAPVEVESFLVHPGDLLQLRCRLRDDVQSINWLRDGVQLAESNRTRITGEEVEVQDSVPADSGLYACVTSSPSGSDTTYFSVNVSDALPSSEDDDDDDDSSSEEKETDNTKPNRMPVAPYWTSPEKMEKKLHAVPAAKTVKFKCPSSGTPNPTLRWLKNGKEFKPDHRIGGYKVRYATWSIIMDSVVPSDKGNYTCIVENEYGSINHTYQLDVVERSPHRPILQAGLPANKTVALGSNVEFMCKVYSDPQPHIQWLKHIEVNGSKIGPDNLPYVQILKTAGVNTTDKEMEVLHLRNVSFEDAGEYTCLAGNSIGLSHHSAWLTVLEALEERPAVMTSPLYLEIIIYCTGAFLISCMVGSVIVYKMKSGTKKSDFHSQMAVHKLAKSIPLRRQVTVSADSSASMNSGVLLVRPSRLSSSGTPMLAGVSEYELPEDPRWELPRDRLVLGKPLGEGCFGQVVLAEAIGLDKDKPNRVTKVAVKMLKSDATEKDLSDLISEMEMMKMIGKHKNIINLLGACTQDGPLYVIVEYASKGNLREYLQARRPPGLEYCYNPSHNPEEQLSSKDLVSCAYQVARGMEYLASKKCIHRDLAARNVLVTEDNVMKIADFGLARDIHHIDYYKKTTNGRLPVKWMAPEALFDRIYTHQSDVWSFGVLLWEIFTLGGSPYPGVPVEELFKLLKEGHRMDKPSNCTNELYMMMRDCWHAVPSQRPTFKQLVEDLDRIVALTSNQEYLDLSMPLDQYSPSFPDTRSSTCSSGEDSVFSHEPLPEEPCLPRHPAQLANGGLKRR

[7] = test system: A498; test: Antiproliferative activity against human A498 cells after 48 hrs by SRB assay; assay type: functional, cell-based; details: A498, 48 h
[8] = molecular target: Vascular endothelial growth factor receptor 2 (Homo sapiens, UniProt P35968)
Sequence of Vascular endothelial growth factor receptor 2 (P35968 whole entry): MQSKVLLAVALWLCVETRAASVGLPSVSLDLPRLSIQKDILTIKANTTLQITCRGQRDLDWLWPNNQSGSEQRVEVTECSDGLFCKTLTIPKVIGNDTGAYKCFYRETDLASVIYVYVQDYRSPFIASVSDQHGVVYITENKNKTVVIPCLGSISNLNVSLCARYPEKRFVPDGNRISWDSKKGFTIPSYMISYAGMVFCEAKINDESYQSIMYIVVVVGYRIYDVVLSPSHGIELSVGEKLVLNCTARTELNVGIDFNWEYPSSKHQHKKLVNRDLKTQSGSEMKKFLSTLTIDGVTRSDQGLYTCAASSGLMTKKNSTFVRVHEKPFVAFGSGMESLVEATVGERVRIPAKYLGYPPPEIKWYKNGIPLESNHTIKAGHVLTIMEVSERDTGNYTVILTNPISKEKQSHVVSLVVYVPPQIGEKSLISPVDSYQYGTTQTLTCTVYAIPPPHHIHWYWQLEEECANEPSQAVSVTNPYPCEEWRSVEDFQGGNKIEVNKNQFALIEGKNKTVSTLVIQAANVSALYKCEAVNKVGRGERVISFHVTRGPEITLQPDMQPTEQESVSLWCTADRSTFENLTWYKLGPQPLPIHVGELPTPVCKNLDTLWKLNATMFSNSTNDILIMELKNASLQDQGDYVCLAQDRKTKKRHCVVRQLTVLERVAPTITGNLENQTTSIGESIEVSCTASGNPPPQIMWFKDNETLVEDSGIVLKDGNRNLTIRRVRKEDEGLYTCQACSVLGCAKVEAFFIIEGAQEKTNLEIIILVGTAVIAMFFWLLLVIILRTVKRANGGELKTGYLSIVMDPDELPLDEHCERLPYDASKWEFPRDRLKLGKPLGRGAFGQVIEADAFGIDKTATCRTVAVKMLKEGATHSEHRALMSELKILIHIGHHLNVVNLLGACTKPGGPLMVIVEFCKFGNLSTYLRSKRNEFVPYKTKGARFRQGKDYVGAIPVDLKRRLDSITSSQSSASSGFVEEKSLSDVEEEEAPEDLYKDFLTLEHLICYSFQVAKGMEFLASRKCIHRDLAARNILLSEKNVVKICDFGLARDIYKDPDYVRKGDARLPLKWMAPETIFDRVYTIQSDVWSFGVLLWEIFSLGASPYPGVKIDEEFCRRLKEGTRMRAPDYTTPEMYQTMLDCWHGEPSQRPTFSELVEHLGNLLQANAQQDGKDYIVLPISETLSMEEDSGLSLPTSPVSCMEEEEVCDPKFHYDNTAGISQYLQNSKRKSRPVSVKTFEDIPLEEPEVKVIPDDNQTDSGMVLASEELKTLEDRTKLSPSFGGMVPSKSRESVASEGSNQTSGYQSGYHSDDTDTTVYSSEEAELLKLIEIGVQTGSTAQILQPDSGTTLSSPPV
Description: Inhibition of VEGFR-2 (unknown origin) using biotinylated poly-GluTyr (4:1) as substrate after 5 mins by ELISA

Compound | IC50 [5] [nM] | IC50 [6] [nM] | also measured
CNC(=O)c1cc(Oc2ccc(NC(=O)Nc3ccc(Cl)c(C(F)(F)F)c3)cc2)ccn1 [SORAFENIB] |  |  | IC50 [1]: 4270 nM; IC50 [2]: 85000 nM; IC50 [3]: 5230 nM; IC50 [4]: 6110 nM
COc1ccc2c(c1)/C(=N/NC(=O)c1ccc(NC(=O)c3ccc(Cl)cc3)cc1)C(=O)N2 | 2010 | 390 | 
O=C(Nc1ccc(C(=O)N/N=C2\C(=O)Nc3ccc(Br)cc32)cc1)Nc1ccc(Cl)c(C(F)(F)F)c1 | 450 | 310 | 
COc1cccc(NC(=O)Nc2ccc(C(=O)N/N=C3\C(=O)Nc4ccc(Cl)cc43)cc2)c1 | 1290 | 420 | 
COc1ccc(C(=O)Nc2ccc(C(=O)N/N=C3\C(=O)Nc4ccc(OC)cc43)cc2)cc1 | 90 | 460 | 
COc1ccc2c(c1)/C(=N/NC(=O)c1ccc(NC(=O)Nc3ccc(Cl)cc3)cc1)C(=O)N2 | 1820 | 390 | 
COc1ccc(C(=O)Nc2ccc(C(=O)N/N=C3\C(=O)Nc4ccc(Br)cc43)cc2)cc1 | 230 | 380 | 
COc1cccc2c1C(=O)c1c(O)c3c(c(O)c1C2=O)C[C@@](O)(C(=O)CO)C[C@@H]3O[C@H]1C[C@H](N)[C@H](O)[C@H](C)O1 [DOXORUBICIN] |  |  | IC50 [7]: 1100 nM; IC50 [2]: 80300 nM; IC50 [3]: 4100 nM; IC50 [4]: 4360 nM
COc1cccc(NC(=O)Nc2ccc(C(=O)N/N=C3\C(=O)Nc4ccc(Br)cc43)cc2)c1 | 1590 | 480 | 
COc1ccc2c(c1)/C(=N/NC(=O)c1ccc(NC(=O)Nc3ccc(Cl)c(C(F)(F)F)c3)cc1)C(=O)N2 | 100 | 230 | 
COc1ccc(NC(=O)Nc2ccc(C(=O)N/N=C3\C(=O)Nc4ccc(Br)cc43)cc2)cc1 | 3790 | 610 | 
COc1ccc2c(c1)/C(=N/NC(=O)c1ccc(NC(=O)Nc3ccccc3)cc1)C(=O)N2 | 3640 | 280 | 
COc1cccc(NC(=O)Nc2ccc(C(=O)N/N=C3\C(=O)Nc4ccc(OC)cc43)cc2)c1 | 110 | 300 | IC50 [1]: 27000 nM; IC50 [8]: 270 nM; IC50 ([7]; read-out: IC50): 780 nM; IC50 [2]: 45800 nM; IC50 [3]: 2930 nM; IC50 [4]: > 100000 nM
COc1ccc(NC(=O)Nc2ccc(C(=O)N/N=C3\C(=O)Nc4ccc(OC)cc43)cc2)cc1 | 330 | 170 | 
